Values of other authors in patent US9789076B2, “Bolus dose of hydroxycitric acid with glycerol” (GLYKON TECHNOLOGIES GROUP, LLC, priority 2014, dated 2017).
Read-outs that look alike come from different tables or passages of the source.

Experiments:
[1] = rats, oral, 30 days
[2] = tested on: fatty acid synthesis
[3] = 0.33 mmoles/kg twice daily (total 0.66 mmoles/kg)

SMILES	food consumption, percent of controls [1, 3]	weight gain, percent of controls [1, 3]	food consumption, percent of controls ([1]; 2.63 mmoles/kg as bolus)	weight gain, percent of controls ([1]; 2.63 mmoles/kg as bolus)	lowest effect dosage ([1]; given twice daily)	inhibition of acetate or ethanol incorporation into fatty acid synthesis [2]
O=C([O-])CC(O)(C(=O)[O-])C(O)C(=O)[O-].[Na+].[Na+].[Na+] (stereo not drawn) [trisodium hydroxycitrate]	87%	62%	83%	64%	0.33 mmoles/kg body weight	–
O=C(O)CC(O)(C(=O)O)C(O)C(=O)O (single isomer, unassigned; (-)) [hydroxycitrate, (−)-Hydroxycitric acid]	–	–	–	–	–	no hydroxycitrate inhibition
